The results in this text go back to patent publication US12162872B2, “Cycloalkylurea derivative” (Sumitomo Pharma Co., Ltd., priority 2019, dated 2024).

In the assay the target is T1, Human orexin receptor type 2 (Homo sapiens, UniProt O43614).
T1 construct: expressed in transfected cells; host or cells: CHO cells (transient expression)
T1 sequence (O43614 1-444): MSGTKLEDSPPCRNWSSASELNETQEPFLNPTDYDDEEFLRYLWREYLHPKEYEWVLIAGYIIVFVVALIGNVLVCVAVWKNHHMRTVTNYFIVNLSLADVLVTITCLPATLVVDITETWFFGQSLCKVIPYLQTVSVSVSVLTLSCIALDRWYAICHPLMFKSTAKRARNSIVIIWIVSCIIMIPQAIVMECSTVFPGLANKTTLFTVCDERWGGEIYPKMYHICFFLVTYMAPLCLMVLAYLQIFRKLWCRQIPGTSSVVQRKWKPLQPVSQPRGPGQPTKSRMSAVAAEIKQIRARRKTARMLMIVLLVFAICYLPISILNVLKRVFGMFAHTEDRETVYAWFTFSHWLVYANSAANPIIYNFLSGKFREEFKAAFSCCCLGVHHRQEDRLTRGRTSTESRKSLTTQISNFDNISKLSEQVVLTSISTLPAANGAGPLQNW
Put plainly: Test 1: Evaluation of agonist activity for orexin receptor type 2 (aequorin luminescence, intracellular calcium mobilization in CHO cells). Type of assay: cell-based. As to conditions: relative percentage of luminescence for the luminescence (100%) of Orexin A (100 pM); CHO cells transiently expressing human orexin receptor type 2 and apoaequorin; Orexin A Lot. 641114. Summed up: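 CHO cells transiently expressing human OX2 receptor and apoaequorin, seeded 16-22 h, loaded with 1 μM coelenterazine hcp for 2 h at room temperature. Compound added in Hanks/20 mM HEPES/0.1% BSA, 0.1% DMSO final, and calcium luminescence measured. Activity expressed as percent of the 100 pM Orexin A response.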
Background: Calcium flux is commonly read through the fluorescence of an indicator in the cells.

In the case of `CC(C)N1CCN([C@H]2CCCC(F)(F)[C@@H]2NC(=O)N2CCC(c3ccc(C(F)(F)F)cn3)CC2)CC1` (racemic) [Example 55, rac-N-{(1R,6S)-2,2-difluoro-6-[4-(propan-2-yl)piperazin-1-yl]cyclohexyl}-4-[5-(trifluoromethyl)pyridin-2-yl]piperidine-1-carboxamide], the “agonist activity (%)” value was found to be 95%.

Take `Cc1ccc(C2(C)CCN(C(=O)N[C@@H]3[C@@H](N4CCN(C(C)C)CC4)CCCC3(F)F)CC2)cc1` (racemic) [Example 58, rac-N-{(1R,6S)-2,2-difluoro-6-[4-(propan-2-yl)piperazin-1-yl]cyclohexyl}-4-methyl-4-(4-methylphenyl)piperidine-1-carboxamide]: the “agonist activity (%)” value was determined as 150%.

Take `CC(C)N1CCN([C@H]2CCCC(F)(F)[C@@H]2NC(=O)N2CCC(C)(c3ccc(C(F)F)cc3)CC2)CC1` (racemic) [Example 59, rac-4-[4-(difluoromethyl)phenyl]-N-{(1R,6S)-2,2-difluoro-6-[4-(propan-2-yl)piperazin-1-yl]cyclohexyl}-4-methylpiperidine-1-carboxamide]: the “agonist activity (%)” value came to 164%.

Take `Cc1ccc(C2CC=C(C(=O)N[C@@H]3[C@@H](N4CCN(C(C)C)CC4)CCCC3(F)F)CC2)cc1` (mixture of isomers) [Example 77, rac-N-{(1R,6S)-2,2-Difluoro-6-[4-(propan-2-yl)piperazin-1-yl]cyclohexyl}-4′-methyl-1,2,3,6-tetrahydro[1,1′-biphenyl]-4-carboxamide]: the “agonist activity (%)” value is recorded as 158%.

`Cc1ccc(C2CC=C(C(=O)O[C@@H]3[C@@H](N4CCN(C(C)C)CC4)CCCC3(F)F)CC2)cc1` (mixture of isomers) [Example 78, rac-(1R,6S)-2,2-Difluoro-6-[4-(propan-2-yl)piperazin-1-yl]cyclohexyl 4′-methyl-1,2,3,6-tetrahydro[1,1′-biphenyl]-4-carboxylate]: the “agonist activity (%)” value came to 36%.

`CC(C)N1CCN([C@H]2CCCC(F)(F)[C@@H]2NC(=S)N2CCC(C)(c3noc(C4CC4)n3)CC2)CC1` (racemic) [Example 79, rac-4-(5-cyclopropyl-1,2,4-oxadiazol-3-yl)-N-{(1R,6S)-2,2-difluoro-6-[4-(propan-2-yl)piperazin-1-yl]cyclohexyl}-4-methylpiperidine-1-carbothioamide]: the “agonist activity (%)” value came to 191%.

With `Cc1ccc(C2CCN(C(=O)NC3C(CN4CCN(C(C)C)CC4)[C@@H]4CC[C@H]3C4)CC2)cc1` (mixture of isomers) [Example 81, rac-4-(4-Methylphenyl)-N-[(1S,4R)-3-{[4-(propan-2-yl)piperazin-1-yl]methyl}bicyclo[2.2.1]heptan-2-yl]piperidine-1-carboxamide], the “agonist activity (%)” value came to 57%.

For `CC(C)N1CCN([C@H]2CCCC(F)(F)[C@@H]2OC(=O)N2CCC(C)(c3noc(C4CC4)n3)CC2)CC1` [Example 14, (1R,6S)-2,2-difluoro-6-[4-(propan-2-yl)piperazin-1-yl]cyclohexyl 4-(5-cyclopropyl-1,2,4-oxadiazol-3-yl)-4-methylpiperidine-1-carboxylate], the “agonist activity (%)” value is recorded as 178%.

For `CC(C)N1CCN([C@@H]2CCCC(F)(F)[C@H]2NC(=O)N2CCC(C)(c3cc(C4CC4)on3)CC2)CC1` [Example 22, 4-(5-cyclopropyl-1,2-oxazol-3-yl)-N-{(1S,6R)-2,2-difluoro-6-[4-(propan-2-yl)piperazin-1-yl]cyclohexyl}-4-methylpiperidine-1-carboxamide], the “agonist activity (%)” value worked out at 163%.

Consider `CC(C)N1CCN([C@@H]2CCCC(F)(F)[C@H]2NC(=O)N2CCC(C)(c3noc(C4CC4)n3)CC2)CC1` [Example 23, 4-(5-cyclopropyl-1,2,4-oxadiazol-3-yl)-N-{(1S,6R)-2,2-difluoro-6-[4-(propan-2-yl)piperazin-1-yl]cyclohexyl}-4-methylpiperidine-1-carboxamide], for which the “agonist activity (%)” value is reported as 104%.

Regarding `CC(C)N1CCN([C@H]2CCCC(F)(F)[C@@H]2NC(=O)N2CCC(C)(c3noc(C4CC4)n3)CC2)CC1` [Example 24, 4-(5-cyclopropyl-1,2,4-oxadiazol-3-yl)-N-{(1R,6S)-2,2-difluoro-6-[4-(propan-2-yl)piperazin-1-yl]cyclohexyl}-4-methylpiperidine-1-carboxamide], the “agonist activity (%)” value worked out at 210%.

As for `CC(C)N1CCN([C@H]2CCCC(F)(F)[C@@H]2NC(=O)N2CCC(C)(c3cc(C4CC4)on3)CC2)CC1` [Example 25, 4-(5-cyclopropyl-1,2-oxazol-3-yl)-N-{(1R,6S)-2,2-difluoro-6-[4-(propan-2-yl)piperazin-1-yl]cyclohexyl}-4-methylpiperidine-1-carboxamide], the “agonist activity (%)” value is 165%.

As for `CC(C)N1CCN([C@H]2CCCC(F)(F)[C@@H]2NC(=O)N2CCC(C)(c3nsc(C4CC4)n3)CC2)CC1` [Example 43, 4-(5-cyclopropyl-1,2,4-thiadiazol-3-yl)-N-{(1R,6S)-2,2-difluoro-6-[4-(propan-2-yl)piperazin-1-yl]cyclohexyl}-4-methylpiperidine-1-carboxamide], the “agonist activity (%)” value worked out at 146%.

As to `CC(C)N1CCN([C@H]2CCCC(F)(F)[C@@H]2NC(=O)N2CCC(C)(c3nnc(C4CC4)s3)CC2)CC1` [Example 44, 4-(5-cyclopropyl-1,3,4-thiadiazol-2-yl)-N-{(1R,6S)-2,2-difluoro-6-[4-(propan-2-yl)piperazin-1-yl]cyclohexyl}-4-methylpiperidine-1-carboxamide], the “agonist activity (%)” value worked out at 148%.

As for `Cc1ccc(C2(C)CCN(C(=O)N[C@@H]3[C@@H](N4CCN(C(C)C)CC4)CCCC3(F)F)CC2)cc1` [Example 49, N-{(1R,6S)-2,2-difluoro-6-[4-(propan-2-yl)piperazin-1-yl]cyclohexyl}-4-methyl-4-(4-methylphenyl)piperidine-1-carboxamide], the “agonist activity (%)” value amounted to 151%.

For `Cc1ccc(C2(C)CCN(C(=O)N[C@@H]3[C@@H](N4CCN(C(C)C)CC4)CCCC3(F)F)CC2)c(F)c1` [Example 56, N-{(1R,6S)-2,2-difluoro-6-[4-(propan-2-yl)piperazin-1-yl]cyclohexyl}-4-(2-fluoro-4-methylphenyl)-4-methylpiperidine-1-carboxamide], the “agonist activity (%)” value is reported as 140%.

On to `CC(C)N1CCN([C@H]2CCCC(F)(F)[C@@H]2NC(=O)N2CCC(C)(c3nsc(OC4CC4)n3)CC2)CC1` [Example 57, 4-[5-(cyclopropyloxy)-1,2,4-thiadiazol-3-yl]-N-{(1R,6S)-2,2-difluoro-6-[4-(propan-2-yl)piperazin-1-yl]cyclohexyl}-4-methylpiperidine-1-carboxamide], for which the “agonist activity (%)” value is 155%.

As to `Cc1ccc(C2(C)CCN(C(=O)N[C@@H]3[C@@H](N4CCN(C(C)C)CC4)CCCC3(F)F)CC2)c(C#N)c1` [Example 60, 4-(2-cyano-4-methylphenyl)-N-{(1R,6S)-2,2-difluoro-6-[4-(propan-2-yl)piperazin-1-yl]cyclohexyl}-4-methylpiperidine-1-carboxamide], the “agonist activity (%)” value amounted to 151%.

With `Cc1ccc(C2(C)CCN(C(=O)N[C@@H]3[C@@H](N4CC5CC(C4)N5C(C)C)CCCC3(F)F)CC2)cc1` [Example 61, N-{(1R,6S)-2,2-difluoro-6-[6-(propan-2-yl)-3,6-diazabicyclo[3.1.1]heptan-3-yl]cyclohexyl}-4-methyl-4-(4-methylphenyl)piperidine-1-carboxamide], the “agonist activity (%)” value is listed as 169%.

As to `CC(C)N1CC2CCC(C1)N2[C@H]1CCCC(F)(F)[C@@H]1NC(=O)N1CCC(C)(c2noc(C3CC3)n2)CC1` [Example 62, 4-(5-cyclopropyl-1,2,4-oxadiazol-3-yl)-N-{(1R,6S)-2,2-difluoro-6-[3-(propan-2-yl)-3,8-diazabicyclo[3.2.1]octan-8-yl]cyclohexyl}-4-methylpiperidine-1-carboxamide], the “agonist activity (%)” value is on record as 174%.

Consider `Cc1ccc(C2(C)CCN(C(=O)N[C@@H]3[C@@H](N4C5CCC4CN(C(C)C)C5)CCCC3(F)F)CC2)cc1` [Example 63, N-{(1R,6S)-2,2-difluoro-6-[3-(propan-2-yl)-3,8-diazabicyclo[3.2.1]octan-8-yl]cyclohexyl}-4-methyl-4-(4-methylphenyl)piperidine-1-carboxamide], for which the “agonist activity (%)” value came out at 149%.

On to `CC(C)N1CC[C@@H](O[C@H]2CCCC(F)(F)[C@@H]2NC(=O)N2CCC(C)(c3noc(C4CC4)n3)CC2)C1` [Example 64, 4-(5-cyclopropyl-1,2,4-oxadiazol-3-yl)-N-[(1R,6S)-2,2-difluoro-6-{[(3R)-1-(propan-2-yl)pyrrolidin-3-yl]oxy}cyclohexyl]-4-methylpiperidine-1-carboxamide], for which the “agonist activity (%)” value is 204%.

For the compound `CC(C)N1CC2CCC(C1)N2[C@H]1CCCC(F)(F)[C@@H]1NC(=O)N1CCC(C)(c2cc(C3CC3)on2)CC1` [Example 65, 4-(5-cyclopropyl-1,2-oxazol-3-yl)-N-{(1R,6S)-2,2-difluoro-6-[3-(propan-2-yl)-3,8-diazabicyclo[3.2.1]octan-8-yl]cyclohexyl}-4-methylpiperidine-1-carboxamide], the “agonist activity (%)” value worked out at 155%.
